Drawing on ChEMBL document CHEMBL1146347, “Carinatumins A-C, new alkaloids from Lycopodium carinatum inhibiting acetylcholinesterase” (Bioorg Med Chem, 2007), this text covers IC50 for three compounds.

The assay deals with T1, Acetylcholinesterase (Bos taurus, UniProt P23795).
T1 sequence (P23795 whole entry): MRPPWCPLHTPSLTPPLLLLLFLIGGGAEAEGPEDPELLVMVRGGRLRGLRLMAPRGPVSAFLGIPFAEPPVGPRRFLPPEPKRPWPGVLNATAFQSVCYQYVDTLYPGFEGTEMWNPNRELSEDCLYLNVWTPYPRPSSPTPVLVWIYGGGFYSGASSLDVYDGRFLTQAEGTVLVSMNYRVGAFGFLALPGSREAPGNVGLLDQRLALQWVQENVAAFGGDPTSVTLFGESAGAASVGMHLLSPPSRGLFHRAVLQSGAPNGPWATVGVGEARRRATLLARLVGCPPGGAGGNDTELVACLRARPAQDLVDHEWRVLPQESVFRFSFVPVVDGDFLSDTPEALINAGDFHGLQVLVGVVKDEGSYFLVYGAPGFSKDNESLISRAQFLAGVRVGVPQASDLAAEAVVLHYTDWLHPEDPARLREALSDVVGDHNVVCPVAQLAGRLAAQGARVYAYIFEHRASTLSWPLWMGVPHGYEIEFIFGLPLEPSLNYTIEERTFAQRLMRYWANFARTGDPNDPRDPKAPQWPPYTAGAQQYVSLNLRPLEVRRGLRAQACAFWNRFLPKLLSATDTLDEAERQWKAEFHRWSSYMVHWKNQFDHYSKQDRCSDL
The experiment in a line: Inhibition of bovine erythrocyte acetylcholinesterase.
As a reminder, the IC50 is the concentration that inhibits the measured activity by half. On to `CC1=C[C@H]2Cc3[nH]c(=O)ccc3[C@]3(C1)NCC[C@@H](O)[C@H]23` [CARINATUMINS B (2)], for which the concentration for half-maximal inhibition (IC50) was 7 µM.

Turning to `CC1=C[C@H]2Cc3[nH]c(=O)ccc3[C@](N)(C1)/C2=C/CO`, the midpoint of inhibition, the IC50, lay at 4.6 µM.

`C[C@H]1C[C@@H](CC2=[N+]([O-])CCCC2)[C@@H]2CCCN[C@H]2C1`: the 50% inhibitory concentration (IC50) is > 100 µM.
